Source: article PMC8453936, “Development and in vitro Profiling of Dual FXR/LTA4H Modulators” (Chemmedchem, 2021)

Biological target: T1, PPARγ (Homo sapiens, UniProt P37231)
T1 construct: expressed in transfected cells; host or cells: HEK293T
T1 sequence (P37231 238-503 limits assumed): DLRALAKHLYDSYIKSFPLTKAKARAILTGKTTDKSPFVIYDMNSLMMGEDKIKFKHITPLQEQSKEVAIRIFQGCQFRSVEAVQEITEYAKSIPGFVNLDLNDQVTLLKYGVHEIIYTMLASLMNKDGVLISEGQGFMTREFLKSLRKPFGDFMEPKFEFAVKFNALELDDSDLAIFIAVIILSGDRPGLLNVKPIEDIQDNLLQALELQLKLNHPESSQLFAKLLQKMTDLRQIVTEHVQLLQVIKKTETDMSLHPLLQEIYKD
Assay: Gal4 hybrid reporter gene assay PPARγ (HEK293T)
Assay type: cell-based
Conditions: relative activation, n=2
Source text: Isothermal titration calorimetry (ITC) confirmed binding of 8 and 19 to the recombinant proteins of both FXR LBD and LTA4H (Figure 1).
Figure 2 (a) Selectivity profiles of 8 and 19 over related nuclear receptors. […] (b) Activity of 8 and 19 in a WST‐1 cell viability assay in HepG2 cells. Data are mean±S.E.M., n=4. […] Data are mean±S.E.M. relative FXR activation (%), n≥3. […] Data are mean±S.E.M. relative LTA4H inhibition (%), n=3.
Hybrid reporter gene assays. Nuclear receptor modulation was determined in hybrid reporter gene assays using the Gal4‐fusion receptor plasmids pFA‐CMV‐hPPARα‐LBD,[39] pFA‐CMV‐hPPARγLBD,[39] pFA‐CMV‐hPPARδ‐LBD,[39] pFA‐CMV‐hLXRα‐LBD,[40] pFACMV‐hLXRβ‐LBD,[40] pFA‐CMV‐hRXRα‐LBD,[41] pFA‐CMV‐hRARα‐LBD,[41] pFA‐CMV‐hVDR‐LBD[41] and pFA‐CMV‐hCAR‐LBD[41] coding for the hinge region and ligand binding domain (LBD) of the canonical isoform of the respective nuclear receptor, pFR‐Luc (Stratagene) as reporter plasmid and pRL‐SV40 (Promega) for normalization of transfection eﬃciency. HEK293T cells were grown in DMEM high glucose, supplemented with 10 % FCS, sodium pyruvate (1 mM), penicillin (100 U/mL), and streptomycin (100 μg/mL) at 37 °C and 5 % CO2, and seeded in 96‐well plates (2.5 ⋅ 10^4 cells/well) the day before transfection. […] Luminescence was measured with an Infinite M200 luminometer (Tecan Deutschland GmbH, Germany). […]

## O=C(O)c1cccc(NC(=O)c2ccc(OCCCc3ccccc3)cc2)c1 [compound 8]
  PPARγ activation: weak PPARγ activation
